# Measurements reported in the supplement of paper PMC10307832.
# Key:
# Experiment in all cases: relative viability (nuclei count vs DMSO), 5 days (fraction); higher = more cells survive
# Quizartinib + Phenformin = compound: CC(C)(C)c1cc(NC(=O)Nc2ccc(-c3cn4c(n3)sc3cc(OCCN5CCOCC5)ccc34)cc2)no1 [Quizartinib] + N=C(N)NC(=N)NCCc1ccccc1 [Phenformin] (partner 250 µM)
# Method in brief: (§1)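 Each reported value is a median over duplicate plates. It expresses relative viability: treated-well nuclei count divided by vehicle-well nuclei count. Lung cancer cell lines in 1536-well plates were dosed by pin tool a day after seeding, alone with one drug or with a fixed anchor-drug dose plus five library-drug doses (not always all listed) in √10 steps, and nuclei were counted after 5 days.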
# YM155 + Vorinostat = compound: COCC[n+]1c2c(n(Cc3cnccn3)c1C)C(=O)c1ccccc1C2=O [YM155] + O=C(CCCCCCC(=O)Nc1ccccc1)NO [Vorinostat] (partner 1 µM)
# Method in brief: as §1
# YM155 + Lapatinib = compound: COCC[n+]1c2c(n(Cc3cnccn3)c1C)C(=O)c1ccccc1C2=O [YM155] + CS(=O)(=O)CCNCc1ccc(-c2ccc3ncnc(Nc4ccc(OCc5cccc(F)c5)c(Cl)c4)c3c2)o1 [Lapatinib] (partner 2 µM)
# Method in brief: as §1
# Quizartinib + Vorinostat = compound: CC(C)(C)c1cc(NC(=O)Nc2ccc(-c3cn4c(n3)sc3cc(OCCN5CCOCC5)ccc34)cc2)no1 [Quizartinib] + O=C(CCCCCCC(=O)Nc1ccccc1)NO [Vorinostat] (partner 1 µM)
# Method in brief: as §1
Cell Line,relative viability (Quizartinib + Phenformin; first compound 0.001 µM),relative viability (Quizartinib + Phenformin; first compound 0.003162 µM),relative viability (Quizartinib + Phenformin; first compound 0.01 µM),relative viability (Quizartinib + Phenformin; first compound 0.03162 µM),relative viability (Quizartinib + Phenformin; first compound 0.1 µM),relative viability (YM155 + Vorinostat; first compound 0.002 µM),relative viability (YM155 + Vorinostat; first compound 0.006325 µM),relative viability (YM155 + Vorinostat; first compound 0.02 µM),relative viability (YM155 + Vorinostat; first compound 0.06325 µM),relative viability (YM155 + Lapatinib; first compound 0.002 µM),relative viability (YM155 + Lapatinib; first compound 0.006325 µM),relative viability (YM155 + Lapatinib; first compound 0.02 µM),relative viability (YM155 + Lapatinib; first compound 0.06325 µM),relative viability (Quizartinib + Vorinostat; first compound 0.001 µM),relative viability (Quizartinib + Vorinostat; first compound 0.003162 µM),relative viability (Quizartinib + Vorinostat; first compound 0.01 µM),relative viability (Quizartinib + Vorinostat; first compound 0.03162 µM),relative viability (Quizartinib + Vorinostat; first compound 0.1 µM)
201T,0.472,0.426,0.476,0.408,0.438,0.931,0.96,0.982,0.961,1.02,0.992,0.956,0.96,1,0.982,0.963,0.965,0.992
A549,0.166,0.155,0.201,0.117,0.162,,,,,0.93,0.872,0.598,0.0781,,,,,
A-427,,0.411,0.327,0.256,0.189,0.812,0.849,0.838,0.629,1,0.994,1.07,0.987,0.609,0.757,0.818,0.767,0.874
ABC-1,0.237,0.322,0.227,0.261,0.18,,1.03,0.373,0.303,1.13,,1.18,0.518,,1.24,0.963,0.793,1.65
BEN,0.271,0.279,0.272,0.243,0.26,0.516,0.511,0.619,0.679,0.59,0.746,0.782,0.86,0.533,0.532,0.565,0.56,0.602
CAL-12T,0.587,0.533,0.66,0.435,0.39,0.624,0.723,0.623,0.412,,0.768,0.61,0.588,0.684,0.711,0.914,0.511,0.943
COR-L23,0.419,0.389,0.476,0.37,0.322,0.434,0.501,0.274,0.125,0.837,0.917,0.503,0.15,0.387,0.355,0.507,0.385,0.504
COR-L 105,0.449,0.495,0.471,0.406,0.426,0.77,0.875,0.905,0.541,0.33,0.353,0.337,0.368,0.266,0.793,0.871,,0.881
Calu-6,,,,,,,,,,1.04,0.992,0.271,0.143,,,,,
ChaGo-K-1,0.516,0.494,0.455,0.443,0.421,0.772,0.744,0.787,0.747,,,,,,0.709,0.758,0.719,0.773
EBC-1,,,,,,,,,,0.229,0.203,0.208,0.196,,,,,
EKVX,0.21,0.24,0.238,0.244,0.25,0.767,0.793,0.671,0.725,0.214,0.286,0.221,0.182,,0.815,0.631,0.69,0.634
EMC-BAC-2,0.446,0.493,0.552,,0.525,0.428,0.452,0.606,0.256,0.795,0.899,0.874,0.817,0.433,0.486,0.288,,0.544
EPLC-272H,0.215,0.342,0.427,0.3,0.207,0.443,0.384,0.357,0.55,1.05,0.854,0.941,0.949,0.427,0.337,0.484,0.58,0.692
H3255,0.38,0.31,0.383,0.346,0.354,0.729,0.78,0.776,0.671,0.24,0.241,0.265,0.263,,0.744,0.732,0.808,0.836
HARA,,0.453,0.489,0.445,0.386,0.578,0.462,0.547,0.606,0.623,0.862,0.701,0.959,0.468,0.47,0.553,0.677,0.426
HCC-15,,0.461,0.396,,0.436,0.851,0.836,0.872,0.881,0.802,0.911,0.868,0.69,0.747,0.799,0.882,0.823,0.832
